# From publication PMC9743092, “Membrane-Active Cyclic Amphiphilic Peptides: Broad-Spectrum Antibacterial Activity Alone and in Combination with Antibiotics” (Journal of Medicinal Chemistry, 2022)
# Where two headings read alike, the source gives them in different places. Peptide text beside a SMILES is read from it.
# Columns and labels:
# [1] = system: K. pneumoniae (ATCC BAA-1705); conditions: for MIC K. pneumoniae: supplementary csv, unit not given
# E. coli (ATCC 25922) [2] = conditions: 24 h, ≥99.9% kill
# MRSA (ATCC BAA-1556) [3] = system: MRSA (ATCC BAA-1556); parameters: MIC MRSA: unit not given beside the values; conditions: for MIC MRSA: supplementary csv, unit not given
# E. coli (ATCC 25922) [4] = system: E. coli (ATCC 25922); parameters: MIC E. coli: unit not given beside the values; conditions: supplementary csv, unit not given
# [5] = system: K. pneumoniae (ATCC BAA-1705); conditions: 24 h, ≥99.9% kill
# [6] = system: P. aeruginosa (ATCC 27883); parameters: MIC P. aeruginosa: unit not given beside the values; conditions: supplementary csv, unit not given
# [7] = system: P. aeruginosa (ATCC 27883); conditions: 24 h, ≥99.9% kill
# [8] = system: human red blood cells (hRBCs); conditions: red cells of human, 2 h
# [9] = system: P. aeruginosa (ATCC 27883); experiment: Synergistic checkerboard assay; format: cell-based; conditions: Pseudomonas aeruginosa, ATCC27883; checkerboard; read-out: MIC antibiotic alone
# MRSA (ATCC BAA-1556) [10] = experiment: microbe, parasite or virus in culture; conditions: Staphylococcus aureus, read-out: MIC S. aureus (ATCC BAA-1556)
# [11] = system: P. aeruginosa (ATCC 27883); experiment: microbe, parasite or virus in culture; conditions: Pseudomonas aeruginosa, ATCC27883, read-out: MIC P. aeruginosa (ATCC 27883)
# [12] = system: S. aureus (ATCC BAA-1556); experiment: Synergistic checkerboard assay; format: cell-based; conditions: Staphylococcus aureus, ATCCBAA1556; checkerboard; read-out: MIC antibiotic alone
# [13] = system: K. pneumoniae (ATCC BAA-1705); experiment: Synergistic checkerboard assay; conditions: Klebsiella pneumoniae, ATCCBAA1705, read-out: MIC antibiotic alone
# [14] = system: K. pneumoniae (ATCC BAA-1705); experiment: microbe, parasite or virus in culture; conditions: Klebsiella pneumoniae, ATCCBAA1705, read-out: MIC K. pneumoniae (ATCC BAA-1705)
# E. coli (ATCC 25922) [15] = experiment: Synergistic checkerboard assay; format: cell-based; conditions: Escherichia coli, ATCC25922; checkerboard; read-out: MIC antibiotic alone
# E. coli (ATCC 25922) [16] = experiment: microbe, parasite or virus in culture; conditions: Escherichia coli, ATCC25922, read-out: MIC E. coli (ATCC 25922)
SMILES,MIC K. pneumoniae [1],MBC E. coli (ATCC 25922) (E. coli (ATCC 25922) [2]) [µg/mL],MIC MRSA (MRSA (ATCC BAA-1556) [3]),MIC E. coli (E. coli (ATCC 25922) [4]),MBC K. pneumoniae (ATCC BAA-1705) [5] [µg/mL],MIC P. aeruginosa [6],MBC P. aeruginosa (ATCC 27883) [7] [µg/mL],HC50 [8] [µg/mL],MIC [9] [µg/mL],MIC (MRSA (ATCC BAA-1556) [10]) [µg/mL],MIC [11] [µg/mL],MIC [12] [µg/mL],MIC [13] [µg/mL],other results
"N=C(N)NCCC[C@@H]1NC(=O)[C@H](CCCNC(=N)N)NC(=O)[C@H](CCCNC(=N)N)NC(=O)[C@H](CCCNC(=N)N)NC(=O)[C@H](Cc2c[nH]c3ccccc23)NC(=O)[C@H](Cc2c[nH]c3ccccc23)NC(=O)[C@H](Cc2c[nH]c3ccccc23)NC(=O)[C@H](Cc2c[nH]c3ccccc23)NC(=O)[C@H](Cc2c[nH]c3ccccc23)NC(=O)[C@H](CCCNC(=N)N)NC(=O)[C@H](CCCNC(=N)N)NC1=O [6b, [R6W5]] (cyclo(RRRRRRWWWWW))",64,128,8,32,64,16,32,255,,,,,,
Cc1ncc([N+](=O)[O-])n1CCO [metronidazole],,,,,,,,,32,32,32,32,256,MIC K. pneumoniae (ATCC BAA-1705) ([1]; antibiotic alone or physical mixture with peptide (1:1 w/w)): 256 µg/mL
"N=C(N)NCCC[C@@H]1NC(=O)[C@H](CCCNC(=N)N)NC(=O)[C@H](CCCNC(=N)N)NC(=O)[C@H](Cc2c[nH]c3ccccc23)NC(=O)[C@H](Cc2c[nH]c3ccccc23)NC(=O)[C@H](Cc2c[nH]c3ccccc23)NC(=O)[C@H](Cc2c[nH]c3ccccc23)NC(=O)[C@H](Cc2c[nH]c3ccccc23)NC(=O)[C@H](CCCNC(=N)N)NC(=O)[C@H](CCCNC(=N)N)NC1=O [5b, [R5W5]]",32,64,4,16,32,32,32,230,,,,,,
CN(C)[C@@H]1C(O)=C(C(N)=O)C(=O)[C@@]2(O)C(O)=C3C(=O)c4c(O)cccc4[C@@](C)(O)[C@H]3C[C@@H]12 [tetracycline],,,,,,,,,32,0.25,32,0.25,[…],MIC [14]: […]; MIC (E. coli (ATCC 25922) [15]): 8 µg/mL; MIC (E. coli (ATCC 25922) [16]): 8 µg/mL
"N=C(N)NCCC[C@@H]1NC(=O)[C@H](CCCNC(=N)N)NC(=O)[C@H](CCCNC(=N)N)NC(=O)[C@H](Cc2c[nH]c3ccccc23)NC(=O)[C@H](Cc2c[nH]c3ccccc23)NC(=O)[C@H](Cc2c[nH]c3ccccc23)NC(=O)[C@H](Cc2c[nH]c3ccccc23)NC(=O)[C@H](CCCNC(=N)N)NC1=O [compound 1, [R4W4]] (cyclo(RRRRWWWW))",,32,,,64,,128,175,,,,,,
"N=C(N)NCCC[C@@H]1NC(=O)[C@H](CCCNC(=N)N)NC(=O)[C@H](CCCNC(=N)N)NC(=O)[C@H](CCCNC(=N)N)NC(=O)[C@H](Cc2c[nH]c3ccccc23)NC(=O)[C@H](Cc2c[nH]c3ccccc23)NC(=O)[C@H](Cc2c[nH]c3ccccc23)NC(=O)[C@H](Cc2c[nH]c3ccccc23)NC(=O)[C@H](CCCNC(=N)N)NC(=O)[C@H](CCCNC(=N)N)NC1=O [6a, [R6W4]] (cyclo(RRRRRRWWWW))",64,32,8,32,128,16,16,265,,,,,,"MIC K. pneumoniae (ATCC BAA-1705) ([1]; MgCl2 (1 mM)): 32 µg/mL; MIC K. pneumoniae (ATCC BAA-1705) ([1]; NH4Cl (6 mM)): 32 µg/mL; MIC MRSA (ATCC BAA-1556) (MRSA (ATCC BAA-1556) [3]; CaCl2 (2 mM)): 8 µg/mL; MIC MRSA (ATCC BAA-1556) (MRSA (ATCC BAA-1556) [3]; FBS (25%)): 8 µg/mL; MIC MRSA (ATCC BAA-1556) (MRSA (ATCC BAA-1556) [3]; FeCl3 (8 µM)): 8 µg/mL; MIC MRSA (ATCC BAA-1556) (MRSA (ATCC BAA-1556) [3]; KCl ([…])): 8 µg/mL; MIC MRSA (ATCC BAA-1556) (MRSA (ATCC BAA-1556) [3]; MH broth media, absence of salts and serum): 8 µg/mL; MIC MRSA (ATCC BAA-1556) (MRSA (ATCC BAA-1556) [3]; MgCl2 (1 mM)): 4 µg/mL; MIC MRSA (ATCC BAA-1556) (MRSA (ATCC BAA-1556) [3]; NH4Cl (6 mM)): 4 µg/mL; MIC MRSA (ATCC BAA-1556) (MRSA (ATCC BAA-1556) [3]; NaCl (150 mM)): 8 µg/mL"
NC[C@H]1O[C@H](O[C@H]2[C@H](O)[C@@H](O[C@H]3O[C@H](CO)[C@@H](O)[C@H](N)[C@H]3O)[C@H](N)C[C@@H]2N)[C@H](N)C[C@@H]1O [tobramycin],,,,,,,,,0.5,0.5,0.5,0.5,16,MIC [14]: 16 µg/mL; MIC (E. coli (ATCC 25922) [15]): 8 µg/mL; MIC (E. coli (ATCC 25922) [16]): 8 µg/mL
